According to article PMC10534582, “A Pharmacokinetic Study of Sixteen Major Bioactive Components of Jinshui-Huanxian Granules in Pulmonary Fibrosis Model and Control Rats Using Orbitrap Fusion Mass Spectrometry” (Molecules, 2023):
Read-outs that look alike come from different tables or passages of the source.

Assay: Pharmacokinetics of JHG components in control rats after intragastric administration of JHGs (plasma, Orbitrap Fusion MS)
Assay type: in vivo, Sprague Dawley (SD) rats
Conditions: for AUC(0-inf) / AUC(0-t) / half-life / MRT last / MRT inf / Tmax / Cmax: male, rat, plasma, po; for MRT last: read-out: MRT(0-t); for MRT inf: read-out: MRT(0-∞); for Cmax: intragastric JHGs; for pharmacokinetic process (Cmax and AUCs versus dosage): low, medium, high doses of JHGs
Procedure: Healthy male Sprague Dawley (SD) rats of SPF grade (240 ± 20 g) were purchased from Sipeifu (Beijing, China) Biotechnology Co., Ltd. (Beijing, China), Certificate of Conformity No.: SCYK (Beijing, China) 2019-0015, Animal Quality Certificate No.: 110324220102348616. They were housed in the Animal Center of Henan University of Traditional Chinese Medicine, which passed the ethical audit, ethics number: DWLL202208003, breeding Co. 24 °C, relative humidity 50 ± 2%. The animals fasted for 12 h before the experiment and drank water freely. All feeding and experimental studies on experimental animals were in accordance with the regulations on the Management of Experimental Animals in Henan Province.
Twenty-four healthy male SD rats or PF model rats, weighing 240 ± 20 g, fasted for 12 h before the experiment and drank water freely. Both kinds of rats were randomly divided into four groups. Blank group: equal dose of water by intragastric, low dose; administration group: rats were given the equivalent human dose of JHGs by intragastric, i.e., 10.8 g of raw drug/kg/d (5.70 g/kg/d); medium-dose administration group: 2 times the human equivalent dose of JHGs by intragastric, i.e., 21.6 g of raw drug/kg/d (11.41 g/kg/d); high-dose administration group: 4 times the human equivalent dose of JHG, i.e., 43.2 g of raw drug/kg/d (22.81 g/kg/d). Blood was collected from the tail vein before and 0.083, 0.25, 0.5, 0.75, 1, 1.5, 2, 3, 4, 6, 8, 12, 18, and 24 h after dosing, respectively. A total of 0.5 mL was placed in a heparin sodium centrifuge tube. Whole blood was left for 30 min and then centrifuged in a low-temperature freezing centrifuge (4 °C, 3000 r/min) for 15 min. The upper layer of plasma was collected and stored in a refrigerator at −80 °C.
We added 50 μL of internal standard solution and 800 μL of methanol, shook for 15 min, then centrifuged at 12,000 r/min for 10 min, took the supernatant, dried in a centrifuge concentrator, added 50 μL of the initial mobile phase to the residue, dissolved, centrifuged, then separated the upper layer of the solution used as the test solution. A total of 5 μL test solution was taken into the sample for analysis. For each compound with a certain dosage, the same procedure is repeated six times in parallel. The concentration in plasma was calculated by the internal standard method.
Accucore C18 (100 mm × 2.1 mm, 2.6 μm) column at 25 °C, the mobile phase was methanol (A)-0.1% formic acid aqueous solution (B). The gradient elution program was 0–4 min (65% B-40% B), 4–5 min (40% B-40% B), 5–6 min (40% B-28% B), and 6–7 min (28% B-19% B), 7–7.5 min (19% B-10% B), 7.5–11 min (10% B-0% B), the flow rate was 0.2 mL/min, and the injection volume was 5 μL.
The ion source was an electrospray ionization source (ESI). Nitrogen acted as a carrier gas. The sheath gas pressure was 35 Arb. The auxiliary gas pressure was 7 Arb. The spray voltage was 3.50 kv(+), 2.50 kv(-). The ion transport tube temperature was regulated at 300 °C. Gasification temperature was 275 °C. The resolution was 50,000. The scanning mode was set as SIM mode. The optimized parameters obtained are in Table 5.
Under the established Orbitrap Fusion MS method, the pharmacokinetics of JHG in rats were studied to investigate the dynamic changes of the active components in rats. The pharmacokinetic parameters of each component in each dosing group were calculated by […] model analysis using Kinetica 5.1 (Innaphase, Waltham, MA, USA) pharmacokinetic analysis software. The pharmacotemporal curves were plotted by the plotting software. SPSS 19.0 (IBM, Armonk, NY, USA) was used to analyze all the parameters. Independent sample tests were performed after natural logarithmic transformation for AUC0–t, Cmax. The nonparametric Mann–Whitney test was applied for Tmax, t½, and MRT0–t. p < 0.05 was considered statistically significant.

[1] = Sprague Dawley, 5.7 g/kg/day, JHGs low dose 5.70 g/kg/d
[2] = Sprague Dawley, 5.7 g/kg/day, JHGs low dose 5.70 g/kg/d, read-out: Tmax
[3] = Sprague Dawley, 5.7 g/kg/day, low dose 5.70 g/kg/d, n=6 (1st of 3 stacked values)
[4] = Sprague Dawley, 11.41 g/kg/day, JHGs medium dose 11.41 g/kg/d
[5] = Sprague Dawley, 11.41 g/kg/day, JHGs medium dose 11.41 g/kg/d, read-out: Tmax
[6] = Sprague Dawley, 11.41 g/kg/day, medium dose 11.41 g/kg/d, n=6 (2nd of 3 stacked values)
[7] = Sprague Dawley, 22.81 g/kg/day, JHGs high dose 22.81 g/kg/d
[8] = Sprague Dawley, 22.81 g/kg/day, JHGs high dose 22.81 g/kg/d, read-out: Tmax
[9] = Sprague Dawley, 22.81 g/kg/day, high dose 22.81 g/kg/d, n=6 (3rd of 3 stacked values)
[10] = Sprague-Dawley, after administration of JHGs, read-out: Tmax of all dosages

Row | SMILES | Clearances (JHGs high dose 22.81 g/kg/d) [mL/min/kg] | Vss (JHGs high dose 22.81 g/kg/d) [L] | Clearances (JHGs low dose 5.70 g/kg/d) [mL/min/kg] | Vss (JHGs low dose 5.70 g/kg/d) [L] | Clearances (JHGs medium dose 11.41 g/kg/d) [mL/min/kg] | Vss (JHGs medium dose 11.41 g/kg/d) [L] | AUC(0-inf) [1] [ng·h/mL] | AUC(0-t) [1] [ng·h/mL] | half-life [1] [h] | MRT last [1] [h] | MRT inf [1] [h] | Tmax [2] [h] | Cmax [3] [ng/mL] | AUC(0-inf) [4] [ng·h/mL] | AUC(0-t) [4] [ng·h/mL] | half-life [4] [h] | MRT last [4] [h] | MRT inf [4] [h] | Tmax [5] [h] | Cmax [6] [ng/mL] | other results
1 | O=c1cc(-c2ccc(O)cc2)oc2cc(OC3OC(CO)C(O)C(O)C3O)cc(O)c12 (centres unmarked) [Apigenin-7-glucoside] | 7.33 ± 1.2 | 6.6 ± 0.86 | 3.3 ± 0.67 | 3.94 ± 0.41 | 6 ± 1.3 | 5.33 ± 0.41 | 29.1 ± 6.32 | 20.2 ± 1.99 | 15.4 ± 4.12 | 8.84 ± 0.05 | 20.1 ± 4.89 | 1.83 ± 0.2 | 1.99 ± 0.17 | 28.9 ± 6.86 | 22.2 ± 2.68 | 11 ± 5.32 | 7.89 ± 0.21 | 15.3 ± 4.77 | 1.5 | 3.22 ± 0.44 | AUC(0-inf) [7]: 46.5 ± 7.55 ng·h/mL; AUC(0-t) [7]: 36.5 ± 5.3 ng·h/mL; half-life [7]: 9.62 ± 0.54 h; MRT last [7]: 8.8 ± 0.07 h; MRT inf [7]: 15 ± 0.61 h; Tmax [8]: 1.67 ± 0.29 h; Cmax [9]: 3.88 ± 0.42 ng/mL; Tmax [10]: ≤ 2 h
2 | O=c1cc(-c2ccc(O)c(O)c2)oc2cc(O[C@@H]3O[C@H](CO)[C@@H](O)[C@H](O)[C@H]3O)cc(O)c12 [Cynaroside] | 2.5 ± 0.17 | 1.35 ± 0.09 | 1 ± 0.17 | 0.6 ± 0.08 | 1.3 ± 0.17 | 0.83 ± 0.06 | 312 ± 26 | 290 ± 24.4 | 5.75 ± 0.55 | 7.83 ± 0.02 | 9.56 ± 0.13 | 6 | 44 ± 5.61 | 433 ± 43.5 | 402 ± 39.2 | 5.75 ± 0.11 | 8.56 ± 0.09 | 10.3 ± 0.15 | 6 | 57.7 ± 5.09 | AUCs compared among the analytes: highest; correlation between CL, AUCs (AUC(0–t), AUC (0–∞)), t½, and dose: there was a correlation; pharmacokinetic process (Cmax and AUCs versus dosage): linear pharmacokinetic process; AUC(0-inf) [7]: 472 ± 31.3 ng·h/mL; AUC(0-t) [7]: 438 ± 27.6 ng·h/mL; half-life [7]: 5.1 ± 0.13 h; MRT last [7]: 7.51 ± 0.01 h; MRT inf [7]: 9.2 ± 0.11 h; Tmax [8]: 6 h; Cmax [9]: 79.5 ± 3.5 ng/mL; Tmax compared among the analytes (no matter the dosages): longest
3 | COc1ccc(-c2cc(=O)c3c(OC)c(OC)c(OC)c(OC)c3o2)cc1OC [Nobiletin] | 805.7 ± 251.3 | 882.05 ± 234.11 | 271.5 ± 60.7 | 287.56 ± 59.62 | 466.5 ± 143 | 642.56 ± 174.23 | 21.1 ± 6.95 | 15.6 ± 4.99 | 13.5 ± 1.64 | 8.63 ± 0.2 | 17.8 ± 2.23 | 0.75 | 2.51 ± 0.77 | 22.3 ± 6.8 | 14.4 ± 4.14 | 18.7 ± 2.51 | 8.19 ± 0.19 | 23.3 ± 3.85 | 0.75 | 3.02 ± 0.58 | t1/2 (JHGs high dose 22.81 g/kg/d): 16.19 ± 7.02 h; AUC(0-inf) [7]: 25.9 ± 9.57 ng·h/mL; AUC(0-t) [7]: 17.9 ± 4.56 ng·h/mL; MRT last [7]: 7.37 ± 0.43 h; MRT inf [7]: 19.5 ± 7.12 h; Tmax [8]: 0.75 h; Cmax [9]: 4.46 ± 1.06 ng/mL; Tmax [10]: ≤ 2 h
4 | COc1ccc(C(C)=O)c(O)c1 [Paeonol] | 2357.3 ± 393.5 | 1831.33 ± 158.35 | 1602 ± 417.2 | 1528.44 ± 295.01 | 2679.2 ± 604.3 | 2003.58 ± 215.42 | 55.6 ± 13 | 42.4 ± 8.94 | 13.2 ± 1.77 | 7.84 ± 0.03 | 16.1 ± 1.86 | 0.75 | 6.6 ± 1.48 | 59.2 ± 14.8 | 48.6 ± 10.1 | 11.1 ± 1.41 | 6.91 ± 0.23 | 12.7 ± 1.67 | 0.75 | 11.7 ± 2.03 | AUC(0-inf) [7]: 131 ± 20.9 ng·h/mL; AUC(0-t) [7]: 106 ± 6.95 ng·h/mL; half-life [7]: 9.02 ± 3.68 h; MRT last [7]: 7.77 ± 0.37 h; MRT inf [7]: 13.3 ± 3.52 h; Tmax [8]: 2 h; Cmax [9]: 15.7 ± 1.66 ng/mL; Tmax [10]: ≤ 2 h
5 | CC1=C2CC3C(CC(=O)C4CC(O)CCC43C)C2CCC12OC1CC(C)CNC1C2C (centres unmarked) [Peimisine] | 3.3 ± 0.5 | 3.96 ± 0.82 | 2.5 ± 0.67 | 3.26 ± 0.57 | 3.17 ± 0.83 | 3.98 ± 0.82 | 19.5 ± 5.73 | 12.4 ± 2.56 | 16.5 ± 2.09 | 9.16 ± 0.22 | 22.8 ± 3.24 | 4 | 1.49 ± 0.16 | 26.9 ± 7.93 | 17.8 ± 4.48 | 15.2 ± 1.25 | 9.14 ± 0.03 | 21.3 ± 1.78 | 4 | 2.08 ± 0.54 | pharmacokinetic process (Cmax and AUCs versus dosage): linear pharmacokinetic process; AUC(0-inf) [7]: 48.9 ± 9.74 ng·h/mL; AUC(0-t) [7]: 34.9 ± 8.14 ng·h/mL; half-life [7]: 11.4 ± 0.71 h; MRT last [7]: 11.34 ± 0.11 h; MRT inf [7]: 19.8 ± 0.92 h; Tmax [8]: 8 h; Cmax [9]: 2.35 ± 0.53 ng/mL
